This is an account of results in patent US20260167659A1, “STING AGONISTS” (LIGACHEM BIOSCIENCES INC., priority 2022, published 2026).

Assay type in all cases: cell-based
Series [1] has as its target T1, hSTING H232 variant (Homo sapiens, UniProt Q86WV6).
T1 construct: host or cells: THP1-Dual cells (human monocytes) with knocked-in hSTING H232
Nature of the series: STING activation, THP1-Dual IRF3 reporter assay, hSTING-H232 cells. Conditions: IRF3 luciferase reporter, 24 hours, read-out: STING activity using hSTING-H232 cells, H232 EC50. As to the method: (§1) To assess potency of STING agonist compounds described herein, THP1-Dual™ Cells (NF—KB-SEAP and IRF-Lucia luciferase reporter monocytes, InvivoGen) were used. The reporter cells were knocked-in either of hSTING-WT (R232, #thpd-r232), HAQ variant (#thpd-nfis), or H232 variant (#thpd-h232). All cells were cultured at 37° C. in a humidified incubator at 5% CO2 and maintained in RPMI 1640 medium (Gibco, #22400097) supplemented with 10% heat-inactivated FBS and 1×Pen-Strep (Gibco, #15140122). To measure STING agonist-mediated IRF3 activity, the cells (9.0×10^4 cells per well) were seeded in a flat-bottomed 96-well plate. The next day, the cells were treated with compounds in a serial dilution for 24 hours. Subsequently, 20 μL of the cell culture supernatant and 50 μL of the QUANTI-Luc™ reagent (InvivoGen, #rep-qlc) were mixed in a 96-well white plate and then, luciferase activity was measured using an EnVision Xcite multilabel reader. The data were analyzed using Prism8 software (4-parameter).
(§2) The potency of STING agonist compounds was evaluated by the activation of Type I Interferon pathway using THP-1 IRF3 reporter assay.

Series [2] is described as follows: Normal cell cytotoxicity in CD34+ HSC, CellTiter-Glo. Conditions: human, CD34+ hematopoietic stem cells (HSCs), read-out: In vitro cell cytotoxicity in CD34+ HSC CC50. The protocol:
The CD34^+ hematopoietic stem cells (HSCs) were purchased from […]™ (#70002.3). The cells (2×10^4 cells per well) were cultured in StemSpan™ SFEM II medium supplemented with StemSpan™ CD34+ Expansion Supplement (#02691) in a 6-well plate at 37° C. for 7 days. On day 3 or 4, an equal volume of fresh complete medium was added into the cell culture. On day 7, the cells (4×10^4 cells per well) were seeded in a 96-well white plate and rested for 24 hours in the same condition.
After 72 hours, the cell viability was measured using CellTiter-Glo Luminescent Cell Viability Assay (Promega, #G7573) according to the manufacture's instruction. The signal was detected using an EnVision Xcite multilabel reader and data were analyzed using GraphPad Prism 8 software.
In general terms: In ATP-based viability assays light output follows the ATP content of the culture.

Series [3] deals with T2, hSTING HAQ variant (Homo sapiens, UniProt Q86WV6, G230A/H232R/R293Q/R71H).
T2 construct: host or cells: THP1-Dual cells (human monocytes)
T2 sequence (Q86WV6 whole entry R71H/G230A/H232R/R293Q): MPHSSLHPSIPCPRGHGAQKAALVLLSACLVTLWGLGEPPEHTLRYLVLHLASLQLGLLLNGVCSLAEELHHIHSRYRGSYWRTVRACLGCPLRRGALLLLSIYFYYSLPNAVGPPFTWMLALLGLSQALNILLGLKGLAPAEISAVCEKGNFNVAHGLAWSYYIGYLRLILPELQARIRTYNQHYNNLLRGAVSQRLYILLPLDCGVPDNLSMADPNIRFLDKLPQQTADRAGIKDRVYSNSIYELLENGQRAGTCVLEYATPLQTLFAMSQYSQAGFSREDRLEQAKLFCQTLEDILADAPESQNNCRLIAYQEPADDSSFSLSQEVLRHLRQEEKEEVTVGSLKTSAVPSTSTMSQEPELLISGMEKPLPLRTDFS
Nature of the series: STING activation, THP1-Dual IRF3 reporter assay, hSTING-HAQ cells. To be noted: IRF3 luciferase reporter, 24 hours, read-out: STING activity using hSTING-HAQ cells, HAQ EC50. As to the method:
as §1, §2

A word on the EC50: it is the concentration giving half of the maximal effect. A word on the CC50: it is the concentration that lowers cell viability or growth by half. Take `CCn1nc(C)cc1C(=O)Nc1nc2cc(C(N)=O)cc(OC/C=C/Cn3cc(NC(=O)OCc4ccc(O[C@@H]5O[C@H](C(=O)O)[C@@H](O)[C@H](O)[C@H]5O)c(C(=O)NCCOCCOCCN(C)C)c4)cn3)c2n1C/C=C/Cn1c(NC(=O)c2cc(C)nn2CC)nc2cc(C(N)=O)cc(OCCCC(=O)O)c21` [Compound 313]: the EC50 came out at 0.216 µM in series [1] and 0.115 µM in series [3]. The CC50 at 72 h in series [2] amounted to 0.0445 µM.
